Data from PubChem BioAssay (NCI).
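Step 1: Grow cells in 96-well plates. Step 2: Expose to compound for 48 hours at 5 concentrations. Step 3: Interpolate endpoints linearly; if unreached, use highest concentration. GI50 marks 50% less growth. TGI: total growth inhibition.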

Legend:
Experiment in all cases: inhibition of tumour cell growth, NCI panel, 48 h
[1] = test system: HCC-2998 colon
[2] = test system: SF-539 CNS
[3] = test system: SF-295 CNS
[4] = test system: M14 melanoma
[5] = test system: CCRF-CEM leukemia
[6] = test system: HOP-92 NSCLC
[7] = test system: ACHN renal
[8] = test system: UACC-257 melanoma
[9] = test system: UO-31 renal
[10] = test system: HS 578T breast
[11] = test system: OVCAR-8 ovarian
[12] = test system: SW-620 colon
[13] = test system: LOX IMVI melanoma
[14] = test system: NCI-H23 lung
[15] = test system: HT29 colon
[16] = test system: TK-10 renal
[17] = test system: RPMI-8226 leukemia
[18] = test system: NCI-H226 lung
[19] = test system: MDA-MB-231 breast
[20] = test system: SF-268 CNS
[21] = test system: MDA-MB-435
[22] = test system: T-47D breast
[23] = test system: OVCAR-4 ovarian
[24] = test system: NCI-H522 lung
[25] = test system: U251 CNS
[26] = test system: BT-549 breast
[27] = test system: SK-OV-3 ovarian
[28] = test system: NCI-H460 lung
[29] = test system: KM12 colon

Question: How did the GI50 [1] turn out when `C=CC(=O)N1CC2(CC(n3nc(-c4ccc5c(cnn5C)c4)c(-c4c(Cl)c(C)cc5[nH]ncc45)c3C)C2)C1` was run?
Answer: The GI50 was 1.85 µM.

Question: What about the TGI [1] of the same molecule?
Answer: The TGI was 3.36 µM.

Question: And the GI50 [2]?
Answer: The GI50 was 2.15 µM.

Question: What about the TGI [2] of the same molecule?
Answer: The TGI was 5.17 µM.

Question: And the GI50 [3]?
Answer: The GI50 was 2.16 µM.

Question: And the TGI [3]?
Answer: Its TGI is 5.43 µM.

Question: And the GI50 [4]?
Answer: Its GI50 is 2.88 µM.

Question: And the TGI [4]?
Answer: The TGI was 11.2 µM.

Question: What about the GI50 [5] of the same molecule?
Answer: The GI50 was 2.67 µM.

Question: What about the TGI [5] of the same molecule?
Answer: The TGI was 14.8 µM.

Question: What about the GI50 [6] of the same molecule?
Answer: Its GI50 is 3.36 µM.

Question: What about the TGI [6] of the same molecule?
Answer: The TGI was 14.3 µM.

Question: What about the GI50 [7] of the same molecule?
Answer: The GI50 was 2.01 µM.

Question: And the TGI [7]?
Answer: The TGI was 4.81 µM.

Question: And the GI50 [8]?
Answer: The GI50 was 2.16 µM.

Question: What about the TGI [8] of the same molecule?
Answer: The TGI was 6.57 µM.

Question: What about the GI50 [9] of the same molecule?
Answer: The GI50 was 1.97 µM.

Question: What about the TGI [9] of the same molecule?
Answer: Its TGI is 4.68 µM.

Question: What about the GI50 [10] of the same molecule?
Answer: Its GI50 is 5.56 µM.

Question: What about the TGI [10] of the same molecule?
Answer: Its TGI is 62.9 µM.

Question: And the GI50 [11]?
Answer: Its GI50 is 2.13 µM.

Question: What about the TGI [11] of the same molecule?
Answer: The TGI was 4.84 µM.

Question: What about the GI50 [12] of the same molecule?
Answer: The GI50 was 3.23 µM.

Question: And the TGI [12]?
Answer: Its TGI is 10.3 µM.

Question: And the GI50 [13]?
Answer: Its GI50 is 1.69 µM.

Question: What about the TGI [13] of the same molecule?
Answer: The TGI was 3.55 µM.

Question: And the TGI [14]?
Answer: The TGI was 1.72 µM.

Question: And the GI50 [15]?
Answer: The GI50 was 3.62 µM.

Question: And the TGI [15]?
Answer: Its TGI is 29.5 µM.

Question: And the GI50 [16]?
Answer: Its GI50 is 3.18 µM.

Question: What about the TGI [16] of the same molecule?
Answer: The TGI was 12.8 µM.

Question: What about the GI50 [17] of the same molecule?
Answer: The GI50 was 2.13 µM.

Question: What about the TGI [17] of the same molecule?
Answer: Its TGI is 6.72 µM.

Question: What about the GI50 [18] of the same molecule?
Answer: Its GI50 is 2.63 µM.

Question: And the TGI [18]?
Answer: Its TGI is 8.75 µM.

Question: What about the GI50 [19] of the same molecule?
Answer: Its GI50 is 2.54 µM.

Question: And the TGI [19]?
Answer: The TGI was 6.62 µM.

Question: What about the GI50 [20] of the same molecule?
Answer: Its GI50 is 4.5 µM.

Question: And the TGI [20]?
Answer: The TGI was 20 µM.

Question: And the GI50 [21]?
Answer: Its GI50 is 2.72 µM.

Question: And the TGI [21]?
Answer: The TGI was 7.65 µM.

Question: And the GI50 [22]?
Answer: Its GI50 is 3.97 µM.

Question: And the TGI [22]?
Answer: Its TGI is 19.3 µM.

Question: What about the GI50 [23] of the same molecule?
Answer: Its GI50 is 3.52 µM.

Question: What about the TGI [23] of the same molecule?
Answer: The TGI was 14.8 µM.

Question: And the GI50 [24]?
Answer: The GI50 was 2.09 µM.

Question: And the TGI [24]?
Answer: Its TGI is 5.15 µM.

Question: And the GI50 [25]?
Answer: Its GI50 is 1.89 µM.

Question: And the TGI [25]?
Answer: The TGI was 4.07 µM.

Question: And the GI50 [26]?
Answer: The GI50 was 2.57 µM.

Question: What about the TGI [26] of the same molecule?
Answer: Its TGI is 7.9 µM.

Question: What about the GI50 [27] of the same molecule?
Answer: Its GI50 is 5.17 µM.

Question: What about the TGI [27] of the same molecule?
Answer: Its TGI is 18.2 µM.

Question: And the GI50 [28]?
Answer: The GI50 was 3.12 µM.

Question: What about the TGI [28] of the same molecule?
Answer: Its TGI is 10.3 µM.

Question: And the GI50 [29]?
Answer: Its GI50 is 1.92 µM.

Question: And the TGI [29]?
Answer: Its TGI is 3.72 µM.
